Target: Bacillus lentus alkaline protease F49 (Lederbergia lenta, UniProt P29599, A188P/L211D/S3T/V193M/V199I)
Assay: Residual protease activity in the presence of an inhibitor
Assay type: biochemical
Details: compound 10 mM; substrate AAPFpNA; pH 8.6, 25° C.
Description: To verify that the compounds listed below have a protease activity-inhibiting effect, the residual proteolytic activity of the Bacillus lentus alkaline protease F49 (according to WO 95/23221 A1) was determined in the presence of these compounds.
The substrate succinyl-alanine-alanine-proline-phenylalanine-para-nitroanilide (AAPFpNA; Bachem L-1400) and 5×10^−9 and/or 1×10^−8 M of the protease were placed in 100 mM Tris buffer. The compounds to be tested as listed in Table 1 were then added in a final concentration of 10 mM. Each was dissolved in anhydrous DMSO, correcting for the effect of DMSO on the enzymatic activity by means of a corresponding reference with the same amount of DMSO but without the respective compound. The batches were incubated for 5 minutes at pH 8.6 and 25° C., where 1 U corresponds to 1 μmol substrate cleaved per minute.

Chain of Bacillus lentus alkaline protease F49 (P29599 other isoform, or with tags, fused parts or gaps A188P/V193M/V199I/L211D): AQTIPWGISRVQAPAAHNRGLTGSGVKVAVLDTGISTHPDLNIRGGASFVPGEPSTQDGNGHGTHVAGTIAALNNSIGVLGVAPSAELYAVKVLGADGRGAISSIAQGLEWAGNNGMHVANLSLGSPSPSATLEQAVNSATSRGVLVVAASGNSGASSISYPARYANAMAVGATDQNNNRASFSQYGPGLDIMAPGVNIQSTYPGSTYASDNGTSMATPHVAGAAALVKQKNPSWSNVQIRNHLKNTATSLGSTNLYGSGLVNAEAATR

Structure (SMILES)	relative strength as protease inhibitor and/or stabilizer (rank order V1, V2, V3, V4, V5)
O=C(O)c1cccc(NC(=O)c2ccccc2C(=O)O)c1 [V1, 2-[[(3-carboxyphenyl)amino]carbonyl]benzoic acid]	the strongest
O=C(O)c1ccc(C(=O)c2ccccc2C(=O)O)cc1 [V4, 2-(4-carboxybenzoyl)benzoic acid]	practically just as good as V3

Source: US7968508B2, “Benzophenone or benzoic acid anilide derivatives containing carboxyl groups as enzyme stabilizers” (priority 2007, dated 2011)
